Reference: US10406185B2, “Cancer therapy with a parvovirus combined with a BCL-2 inhibitor” (DEUTSCHES KREBSFORSCHUNGSZENTRUM, priority 2013, dated 2019)

How the values were obtained:
[1] = tested on: U138; test: LDH assay (cell lysis), U138; format: cell-based, human; details: U138, H-1PV at MOI 5, 0.5 μM inhibitor, 72 h
Protocol: 72 hours after infection, percentage of cells undergoing lysis was measured by LDH assay.

[2] = tested on: U373, U138, U343 and NCH125 glioma cell lines; test: Mitochondrial membrane permeabilization (MitoTracker Red), four glioma cell lines; format: cell-based, human; details: ABT-737 0.5-1 μM or H-1PV MOI 2.5-7.5 alone, 48-96 h
Protocol: 48-96 hours after infection, cells were stained with Mitotracker Red, harvested and analyzed by flow cytometry. The percentage of cells with MMP, was determined using the CellQuest Software. In the upper panel representative histogram plots are shown for each condition. In the lower panel the results of a typical experiment performed in triplicates are shown. Columns represent the mean values with relative standard deviation bars.
The fluorescent dye MitoTracker® Red CMXRos (Molecular Probes, Invitrogen, Darmstadt, Germany) that stains mitochondria in live cells was used to measure the change in MMP. Due to the formation of pores in the mitochondrial membrane, apoptotic cells cannot retain the dye and show a lower fluorescent signal in flow cytometry analysis.
Glioma cells were seeded in 6-well plates at the density of 2.5×10^5 cells/well in 3 ml of cultural medium with the exception of NCH125 cells that were seeded at the density of 6.25×10^4 cells/well. […] Cell suspension was analyzed with a FACSCalibur (BD Biosciences). At least 10,000 events were acquired and analyzed with the CellQuest Software (BD Biosciences). The average of cells undergoing MMP was calculated from three replicates.

[3] = tested on: U87; test: LDH assay (cell lysis), U87; format: cell-based, human; details: U87, ABT-737 alone 5 μM, 72 h
Protocol: (§1) LDH assays. […] 72 hours after infection, cell lysis was analyzed by LDH assay as described in the materials and methods section. Columns represent the mean values from 3 replicates with relative standard deviation bars.
(§2) H-1PV cytotoxicity was evaluated by quantification of the enzyme lactate dehydrogenase (LDH), which is released from cells due to loss of membrane integrity (lysis). The assay was performed using the CytoTox 96® Non-Radioactive Cytotoxicity Assay Kit according to the manufacturer's instructions (Promega, Heidelberg, Germany).
(§3) Cells were seeded into 96-well plates usually at the density of 4,000 cells/well in 50 μl of their respective culture media supplemented with 10% FBS. […]
(§4) Briefly, 10 μl of 10× lysis buffer [9% (v/v) Triton X-100 (AppliChem, Darmstadt, Germany) in phosphate buffered saline (PBS)] were added per well in three lines of the plate, which served as 100% cell lysis control. […] The absorbance was measured at a wavelength of 492 nm using the Multiscan ELISA Reader. […] For each condition we calculated the average of the three wells incubated (A) or not (B) with lysis buffer. The average value measured in the wells without cells (background) was subtracted from the values obtained in the wells with the cells.

[4] = tested on: human glioma cell lines; details: ABT-737 alone at the dosages of Table 1, 72 h, all glioma lines except U87
Protocol: as §1, §2, §3, §4

[5] = tested on: AsPC-1 xenografts; details: nude rats, treated animals
Protocol: 5×10^6 AsPC-1 cells were subcutaneously injected in the right flank of 5 week-old female nude rats. After 1 week (when tumour reached the volume of 200-400 mm^3), tumour-bearing animals were randomized in to four groups (n=8). […] Tumour volume was measured with a digital calliper on the days indicated and calculated according to the formula: volume […]=width^2× length/2. Rats were sacrificed when the tumour mass reached 4000 mm^3, in keeping with animal welfare regulations. Data shown represents the average values with standard deviation bars.

[6] = tested on: peripheral blood mononuclear cells (PBMCs); details: non malignant PBMCs; read-out: half maximal effective concentration (EC50); cited from earlier work
[7] = tested on: small-cell lung carcinoma; details: small-cell lung carcinoma xenograft mouse models; cited from earlier work
[8] = tested on: human glioma cell lines; test: Sub-G1 apoptotic population by flow cytometry, eight glioma cell lines; format: cell-based; details: H-1PV MOI 0.5-7.5 or 0.25-5 μM ABT-737 alone, 48-96 h
Protocol: The occurrence of DNA fragmentation (sub-G1 cell population) in response to treatment was assessed by propidium iodide staining and flow cytometry in eight human glioma cell lines (a-h). […] Representative histogram plots are shown in the upper panel. […] Columns represent the mean values with relative standard deviation bars (lower panel).
Propidium iodide staining was performed, in order to detect apoptotic cells after treatment. The dye intercalates in the DNA, where it can be measured by flow cytometry. The fluorescence emission is proportional to the DNA content in the cells. Apoptotic cells are characterized by nuclear DNA fragmentation and can be identified by lower fluorescence emission (sub-G1 apoptotic cell population) (Riccardi & Nicoletti, 2006). […]
After 48 (U251, U138, A172, U87, NCH125), 72 (U373) or 96 (U343, NCH37) hours, from infection, supernatant and cells (harvested by trypsinization) were collected and washed with PBS. […] The cell suspension was filtered in a nylon net, and measured on a FACSCalibur (BD Biosciences, San Jose, Calif.). A minimum of 20,000 events were acquired and analyzed with the CellQuest Software (BD Biosciences). Propidium iodide was detected in the FL-2 channel. Untreated cells were used to set the gate for the apoptotic cell fraction, as they show the fluorescence emission of viable non-apoptotic cells. […]

[9] = tested on: human platelets; details: in contrast to ABT-737; cited from earlier work
[10] = tested on: human hematologic tumour xenograft; details: several human hematologic tumour xenograft models; cited from earlier work

Row | Compound | increase of H-1PV cytotoxicity in comparison to virus alone [1] | effect on MMP, single treatments [2] | cytotoxicity of ABT-737 alone [3] | cytotoxicity of ABT-737 alone [4] | loss of weight or other adverse side effects [5] | EC50 [6] | tumour regression [7] | induction of apoptosis (sub-G1 population), single treatments [8] | effect on human platelets [9] | tumor growth [10]
1 | CN(C)CC[C@H](CSc1ccccc1)Nc1ccc(S(=O)(=O)NC(=O)c2ccc(N3CCN(Cc4ccccc4-c4ccc(Cl)cc4)CC3)cc2)cc1[N+](=O)[O-] [ABT-737] | 3.8 fold | almost no effect on the MMP | modestcytotoxic effects | no apparent cytotoxicity | No loss of weight or other adverse side effects | > 1000 nM | complete regression | unable to induce apoptosis efficiently |  | 
2 | CC1(C)CCC(CN2CCN(c3ccc(C(=O)NS(=O)(=O)c4ccc(NCC5CCOCC5)c([N+](=O)[O-])c4)c(Oc4cnc5[nH]ccc5c4)c3)CC2)=C(c2ccc(Cl)cc2)C1 [ABT-199] | 1.7 fold |  |  |  |  |  |  |  | spares human platelets | inhibit tumor growth
